In ChEMBL document CHEMBL5390272, “Discovery of a potent and selective human AC2 inhibitor based on 7-deazapurine analogues of adefovir” (Bioorg Med Chem, 2023):

Assays:
[1] = Inhibition of Bordetella pertussis Adenylate cyclase toxin in mouse J774.A1 cells preincubated for 5 hrs followed by ACT addition and measured after 30 mins by CatchPointcAMP immunoassay method; format: cell-based
[2] = target: T1, Calmodulin-sensitive adenylate cyclase (Bacillus anthracis, UniProt P40136); test: Inhibition of Bacillus anthracis Edema factor
T1 sequence (P40136 whole entry): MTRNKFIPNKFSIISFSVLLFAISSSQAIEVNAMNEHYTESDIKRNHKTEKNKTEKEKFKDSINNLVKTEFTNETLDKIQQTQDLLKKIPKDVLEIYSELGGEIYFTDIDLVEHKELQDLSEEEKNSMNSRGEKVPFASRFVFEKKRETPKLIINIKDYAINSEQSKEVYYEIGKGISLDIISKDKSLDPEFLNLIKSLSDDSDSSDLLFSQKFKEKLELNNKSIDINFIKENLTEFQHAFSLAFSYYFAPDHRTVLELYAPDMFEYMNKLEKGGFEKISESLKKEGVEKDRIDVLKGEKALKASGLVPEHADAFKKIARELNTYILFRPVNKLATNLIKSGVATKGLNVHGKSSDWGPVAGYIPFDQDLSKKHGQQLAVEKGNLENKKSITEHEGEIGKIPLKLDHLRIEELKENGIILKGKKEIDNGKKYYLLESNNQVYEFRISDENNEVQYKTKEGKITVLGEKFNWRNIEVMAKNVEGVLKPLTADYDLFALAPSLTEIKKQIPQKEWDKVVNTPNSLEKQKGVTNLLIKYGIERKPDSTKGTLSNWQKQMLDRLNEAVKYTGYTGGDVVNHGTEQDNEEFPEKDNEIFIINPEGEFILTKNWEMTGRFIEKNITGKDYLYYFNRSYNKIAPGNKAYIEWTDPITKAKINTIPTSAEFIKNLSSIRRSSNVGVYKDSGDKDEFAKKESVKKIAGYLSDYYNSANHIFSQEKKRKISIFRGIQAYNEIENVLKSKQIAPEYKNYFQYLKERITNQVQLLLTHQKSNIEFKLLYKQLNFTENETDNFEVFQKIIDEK

HL-60 = test: Cytotoxicity against human HL-60 cells by CellTiter-Glo 2.0 assay; format: functional, cell-based
HeLa S3 = test: Cytotoxicity against human HeLa S3 cells by CellTiter-Glo 2.0 assay; format: functional, cell-based
HepG2 = test: Cytotoxicity against human HepG2 cells by CellTiter-Glo 2.0 assay; format: functional, cell-based
[3] = Cytotoxicity against mouse J774.A1 cells assessed as cell viability at 10 uM incubated for 5 hrs by Cell Titer-Glo Luminescent Cell Viability assay relative to control; format: toxicity, cell-based; settings: read-out: Activity
HEK293 = test: Cytotoxicity against AC1 expressed HEK293 cells by CellTiter-Glo 2.0 assay relative to control; format: toxicity, cell-based; design: concentration or dose not given beside the values; settings: human
CCRF-CEM = test: Cytotoxicity against human CCRF-CEM cells by CellTiter-Glo 2.0 assay; format: functional, cell-based
NHDF = test: Cytotoxicity against human NHDF cells by CellTiter-Glo 2.0 assay; format: toxicity, cell-based

Nc1ncnc2c1c(-c1ccccn1)cn2CCOCP(=O)(O)OP(=O)(O)OP(=O)(O)O
IC50 [1]: 0.108 µM | IC50 [2]: 0.0508 µM

CC(C)OC(=O)[C@H](Cc1ccccc1)NP(=O)(COCCn1cc(-c2cccs2)c2c(N)ncnc21)N[C@@H](Cc1ccccc1)C(=O)OC(C)C
IC50 (HL-60): 0.56 µM | IC50 (HeLa S3): 1.09 µM | IC50 (HepG2): 1.02 µM | viability at 5 h, 10 µM [3]: 36% | Activity (HEK293): -9% | IC50 (CCRF-CEM): 0.79 µM | IC50 (NHDF): 0.4 µM

COc1ccc(-c2cn(CCOCP(=O)(O)OP(=O)(O)OP(=O)(O)O)c3ncnc(N)c23)cc1
IC50 [1]: 0.186 µM | IC50 [2]: 0.0884 µM

CC(C)OC(=O)[C@H](Cc1ccccc1)NP(=O)(COCCn1cc(-c2cccc(C(=O)O)c2)c2c(N)ncnc21)N[C@@H](Cc1ccccc1)C(=O)OC(C)C
IC50 (HL-60): > 10 µM | IC50 (HeLa S3): > 10 µM | IC50 (HepG2): > 10 µM | IC50 [1]: 6.09 µM | viability at 5 h, 10 µM [3]: 104% | Activity (HEK293): 115% | IC50 (CCRF-CEM): > 10 µM | IC50 (NHDF): > 10 µM

CC(C)OC(=O)[C@H](Cc1ccccc1)NP(=O)(COCCn1cc(-c2cccc(S(N)(=O)=O)c2)c2c(N)ncnc21)N[C@@H](Cc1ccccc1)C(=O)OC(C)C
IC50 (HL-60): 4.8 µM | IC50 (HeLa S3): > 10 µM | IC50 (HepG2): > 10 µM | IC50 [1]: 3.41 µM | viability at 5 h, 10 µM [3]: 114% | Activity (HEK293): 110% | IC50 (CCRF-CEM): 5.56 µM | IC50 (NHDF): > 10 µM

CCc1cn(CCOCP(=O)(N[C@@H](Cc2ccccc2)C(=O)OC(C)C)N[C@@H](Cc2ccccc2)C(=O)OC(C)C)c2ncnc(N)c12
IC50 (HL-60): 7.89 µM | IC50 (HeLa S3): > 10 µM | IC50 (HepG2): > 10 µM | IC50 [1]: > 10 µM | viability at 5 h, 10 µM [3]: 125% | Activity (HEK293): 90% | IC50 (CCRF-CEM): > 10 µM | IC50 (NHDF): > 10 µM

CC(C)OC(=O)[C@H](Cc1ccccc1)NP(=O)(COCCn1cc(-c2ccco2)c2c(N)ncnc21)N[C@@H](Cc1ccccc1)C(=O)OC(C)C
IC50 (HL-60): 0.66 µM | IC50 (HeLa S3): 1.29 µM | IC50 (HepG2): 0.99 µM | viability at 5 h, 10 µM [3]: 43% | Activity (HEK293): -9% | IC50 (CCRF-CEM): 0.99 µM | IC50 (NHDF): 0.35 µM

CC(C)OC(=O)[C@H](Cc1ccccc1)NP(=O)(COCCn1cc(-c2cncnc2)c2c(N)ncnc21)N[C@@H](Cc1ccccc1)C(=O)OC(C)C
IC50 (HL-60): > 10 µM | IC50 (HeLa S3): > 10 µM | IC50 (HepG2): > 10 µM | IC50 [1]: > 10 µM | viability at 5 h, 10 µM [3]: 128% | Activity (HEK293): 102% | IC50 (CCRF-CEM): > 10 µM | IC50 (NHDF): > 10 µM

COc1ccc(-c2cn(CCOCP(=O)(OCOC(=O)C(C)(C)C)OCOC(=O)C(C)(C)C)c3ncnc(N)c23)cc1
IC50 (HL-60): > 10 µM | IC50 (HeLa S3): > 10 µM | IC50 (HepG2): > 10 µM | IC50 [1]: 10.2 µM | viability at 5 h, 10 µM [3]: 85% | IC50 (CCRF-CEM): > 10 µM | IC50 (NHDF): > 10 µM

CC(C)OC(=O)[C@H](Cc1ccccc1)NP(=O)(COCCn1cc(-c2cccc(NS(C)(=O)=O)c2)c2c(N)ncnc21)N[C@@H](Cc1ccccc1)C(=O)OC(C)C
IC50 (HL-60): 7.08 µM | IC50 (HeLa S3): 15.2 µM | IC50 (HepG2): > 10 µM | IC50 [1]: 2.95 µM | viability at 5 h, 10 µM [3]: 87% | Activity (HEK293): 98% | IC50 (CCRF-CEM): 6.92 µM | IC50 (NHDF): > 10 µM

COc1cccc(-c2cn(CCOCP(=O)(N[C@@H](Cc3ccccc3)C(=O)OC(C)C)N[C@@H](Cc3ccccc3)C(=O)OC(C)C)c3ncnc(N)c23)c1
IC50 (HL-60): 5.47 µM | IC50 (HeLa S3): 9.16 µM | IC50 (HepG2): 13.9 µM | IC50 [1]: 4.8 µM | viability at 5 h, 10 µM [3]: 94% | Activity (HEK293): -14% | IC50 (CCRF-CEM): 4.85 µM | IC50 (NHDF): > 10 µM

COc1ccccc1-c1cn(CCOCP(=O)(N[C@@H](Cc2ccccc2)C(=O)OC(C)C)N[C@@H](Cc2ccccc2)C(=O)OC(C)C)c2ncnc(N)c12
IC50 (HL-60): 6.61 µM | IC50 (HeLa S3): 3.65 µM | IC50 (HepG2): 4.57 µM | IC50 [1]: 2.17 µM | viability at 5 h, 10 µM [3]: 112% | Activity (HEK293): -12% | IC50 (CCRF-CEM): 6.2 µM | IC50 (NHDF): > 10 µM

C#Cc1cn(CCOCP(=O)(N[C@@H](Cc2ccccc2)C(=O)OC(C)C)N[C@@H](Cc2ccccc2)C(=O)OC(C)C)c2ncnc(N)c12
IC50 (HL-60): 6.46 µM | IC50 (HeLa S3): > 10 µM | IC50 (HepG2): 7.9 µM | IC50 [1]: > 10 µM | viability at 5 h, 10 µM [3]: 129% | Activity (HEK293): 85% | IC50 (CCRF-CEM): 5.77 µM | IC50 (NHDF): > 10 µM

Nc1ncnc2c1ncn2CCOCP(=O)(O)OP(=O)(O)OP(=O)(O)O [ADEFOVIR DIPHOSPHATE]
IC50 [2]: 0.0135 µM
